According to ChEMBL document CHEMBL1201862, “PubChem BioAssay data set” (2004):
The source made the active and inactive calls.

Experiments:
HEK293 [1] = assay: NOD1 signaling inhibitors, primary screen, cell-based, luminescence, uHTS (AID 1578); assay type: functional; conditions: Homo sapiens
HEK293 [2] = assay: cells; assay type: functional, cell-based; conditions: Homo sapiens
HEK293 [3] = assay: cells; assay type: functional, cell-based; conditions: Homo sapiens; remark: listed apart in the source
HEK293 [4] = assay: cells; assay type: functional, cell-based; conditions: Homo sapiens; remark: listed apart in the source
[5] = molecular target: Nucleotide-binding oligomerization domain-containing protein 2 (Homo sapiens, UniProt Q9HC29); assay: NOD2 signaling inhibitors, cell-based, luminescence, uHTS, HEK293 (AID 1566); assay type: functional
HEK293 [6] = assay: NOD2 signaling inhibitors in MDP-stimulated cells, cell-based, uHTS, luminescence (AID 2001); assay type: functional; conditions: Homo sapiens
[7] = molecular target: T1, Carboxy-terminal domain RNA polymerase II polypeptide A small phosphatase 1 (Homo sapiens, UniProt Q9GZU7); assay: inhibitors of CTDSP1, concentration-response testing, biochemical assay, absorbance-based, actives from ultra-high-throughput screening (AID 540297); assay type: functional
T1 sequence (Q9GZU7 whole entry): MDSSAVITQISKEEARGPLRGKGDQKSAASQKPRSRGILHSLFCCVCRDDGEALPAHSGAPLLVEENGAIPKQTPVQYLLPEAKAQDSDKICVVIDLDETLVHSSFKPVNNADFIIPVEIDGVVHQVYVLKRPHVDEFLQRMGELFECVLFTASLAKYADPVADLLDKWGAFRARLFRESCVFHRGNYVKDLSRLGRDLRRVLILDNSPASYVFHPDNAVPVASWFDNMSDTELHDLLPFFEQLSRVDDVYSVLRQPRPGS

[8] = molecular target: Polyadenylate-binding protein 1 (Homo sapiens, UniProt P11940); assay: PABP poly(A) RNA binding inhibitors, primary screen, biochemical, fluorescence polarization, uHTS (AID 2014)
[9] = molecular target: Eukaryotic translation initiation factor 4H (Homo sapiens, UniProt Q15056); assay: human eIF4H binding inhibitors, primary screen, translation initiation inhibitor project, biochemical, uHTS, fluorescence polarization (AID 2012)
[10] = cytotoxicity toward NIH3T3 fibroblasts, dose response, counter-screen, cell-based, ATP luminescence, mouse fibroblasts (AID 2010); assay type: functional;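 also: cells exposed to compound for about 90 hours before reading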
[11] = molecular target: T2, Short transient receptor potential channel 4 (Mus musculus, UniProt Q9QUQ5); assay: mouse TRPC4 channel activators, dose response, cell-based, HEK293 TRPC4/mu-opioid, Fluo-4 calcium (AID 434937); assay type: functional
T2 sequence (Q9QUQ5 whole entry): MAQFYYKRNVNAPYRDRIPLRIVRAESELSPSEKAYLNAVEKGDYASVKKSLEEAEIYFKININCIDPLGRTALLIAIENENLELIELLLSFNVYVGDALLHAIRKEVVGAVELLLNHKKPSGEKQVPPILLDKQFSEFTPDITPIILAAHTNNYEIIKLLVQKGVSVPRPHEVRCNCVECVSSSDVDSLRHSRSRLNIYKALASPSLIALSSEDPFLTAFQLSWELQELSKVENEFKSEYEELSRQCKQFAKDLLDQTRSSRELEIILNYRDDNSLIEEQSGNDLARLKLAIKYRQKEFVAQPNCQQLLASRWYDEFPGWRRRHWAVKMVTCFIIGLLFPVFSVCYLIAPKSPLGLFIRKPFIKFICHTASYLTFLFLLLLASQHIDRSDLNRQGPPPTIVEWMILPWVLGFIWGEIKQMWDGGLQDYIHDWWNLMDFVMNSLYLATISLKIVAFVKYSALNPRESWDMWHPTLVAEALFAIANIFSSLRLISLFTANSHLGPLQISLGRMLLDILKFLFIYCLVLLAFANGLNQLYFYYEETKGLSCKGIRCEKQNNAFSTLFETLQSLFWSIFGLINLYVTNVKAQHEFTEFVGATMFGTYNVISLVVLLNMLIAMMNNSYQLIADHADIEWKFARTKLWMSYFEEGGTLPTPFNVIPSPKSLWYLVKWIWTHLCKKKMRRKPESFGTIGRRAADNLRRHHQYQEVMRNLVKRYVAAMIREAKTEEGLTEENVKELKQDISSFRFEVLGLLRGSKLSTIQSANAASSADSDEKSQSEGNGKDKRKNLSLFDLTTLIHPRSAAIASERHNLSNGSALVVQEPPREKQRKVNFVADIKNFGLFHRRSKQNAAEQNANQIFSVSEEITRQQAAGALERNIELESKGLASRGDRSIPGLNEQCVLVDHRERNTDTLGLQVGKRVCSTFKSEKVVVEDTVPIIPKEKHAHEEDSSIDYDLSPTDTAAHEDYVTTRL

[12] = molecular target: T2, Short transient receptor potential channel 4; assay: TRPC4 positive allosteric modulators, dose response, cell-based, HEK293 TRPC4/mu-opioid, Fluo-4 calcium, EC20 DAMGO (AID 434941); assay type: functional
[13] = inhibitors of intracellular T. cruzi replication, confirmation, NIH3T3 host cells, beta-gal luminescence (AID 2044); assay type: functional, cell-based;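 also: intracellular parasites grown in NIH/3T3 mouse fibroblasts as host cells; luminescent beta-galactosidase reporter signal from transgenic T. cruzi replicating inside host cells; inhibitors lower the luminescence signal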
[14] = molecular target: T3, Eukaryotic translation initiation factor 2-alpha kinase 3 (Homo sapiens, UniProt Q9NZJ5); assay: Dose response cell-based high-throughput screening assay to measure PERK inhibition. [Related pubchem assays: 1416 ]; assay type: functional
T3 sequence (Q9NZJ5 whole entry): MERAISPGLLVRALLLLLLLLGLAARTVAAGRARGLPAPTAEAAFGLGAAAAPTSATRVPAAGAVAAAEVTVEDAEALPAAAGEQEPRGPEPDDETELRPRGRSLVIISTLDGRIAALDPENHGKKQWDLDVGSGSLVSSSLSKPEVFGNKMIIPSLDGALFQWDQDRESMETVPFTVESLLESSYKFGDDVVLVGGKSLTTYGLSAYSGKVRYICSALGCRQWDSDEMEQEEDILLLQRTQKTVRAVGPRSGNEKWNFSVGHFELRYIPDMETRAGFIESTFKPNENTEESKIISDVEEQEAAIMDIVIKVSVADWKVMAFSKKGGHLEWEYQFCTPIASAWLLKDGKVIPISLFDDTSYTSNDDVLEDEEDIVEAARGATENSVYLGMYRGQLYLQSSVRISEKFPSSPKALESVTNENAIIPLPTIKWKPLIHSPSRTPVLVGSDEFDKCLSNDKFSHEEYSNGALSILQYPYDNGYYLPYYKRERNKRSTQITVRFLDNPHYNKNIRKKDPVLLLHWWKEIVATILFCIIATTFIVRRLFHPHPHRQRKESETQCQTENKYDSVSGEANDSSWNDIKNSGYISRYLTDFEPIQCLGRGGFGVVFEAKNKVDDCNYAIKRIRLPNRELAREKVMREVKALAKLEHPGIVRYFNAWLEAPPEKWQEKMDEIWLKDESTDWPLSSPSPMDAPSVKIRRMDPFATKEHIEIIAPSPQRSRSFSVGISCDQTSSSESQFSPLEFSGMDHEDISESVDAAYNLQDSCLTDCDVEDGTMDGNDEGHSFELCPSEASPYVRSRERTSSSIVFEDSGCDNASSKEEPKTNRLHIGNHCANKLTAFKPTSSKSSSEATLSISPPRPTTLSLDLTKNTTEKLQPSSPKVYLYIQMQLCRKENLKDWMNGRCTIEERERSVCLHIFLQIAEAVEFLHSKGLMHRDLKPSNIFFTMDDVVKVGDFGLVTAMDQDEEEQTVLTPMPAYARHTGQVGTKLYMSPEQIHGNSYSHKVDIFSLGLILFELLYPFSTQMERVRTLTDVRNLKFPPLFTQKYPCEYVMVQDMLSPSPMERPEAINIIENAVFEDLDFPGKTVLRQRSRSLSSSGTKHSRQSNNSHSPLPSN

[15] = molecular target: T3, Eukaryotic translation initiation factor 2-alpha kinase 3; assay: Counterscreen assay for PERK inhibitors: Dose response cell-based high throughput screening assay to measure inhibition of PERK at 6 hours. [Related pubchem assays: 1522, 1416 ]; assay type: functional
Beta-galactosidase = Beta-galactosidase (Escherichia coli, UniProt Q8VNN2); assay: beta-galactosidase enzyme inhibitors and activators, dose response, artefact control for CCR6 antagonist project, biochemical, E. coli enzyme, set 3 (AID 504712); assay type: functional
Streptococcus = assay: Group A Streptococcus viability loss, dose response, counter-screen for streptokinase expression inhibitor project, luminescence, BacTiterGlo (AID 1915); assay type: functional, organism-based;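 also: potency for reduction of bacterial viability or growth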
[16] = system: Streptococcus sp. 'group A'; assay: growth inhibition of control SK(-) GAS strain, dose response, counter-screen for streptokinase expression inhibitor project, luminescence, kanamycin, BacTiterGlo, confirmation (AID 1900); assay type: functional, organism-based
[17] = A cytotoxicity screen of small molecule inhibitors of the PhoP region in Salmonella typhi identified in the primary screen. [Related pubchem assays: 1850, 1864, 1985 ]; assay type: functional
Trypsin = Trypsin (Sus scrofa, UniProt P00761); assay: porcine trypsin inhibitors, dose response, selectivity assay for Rce1 protease inhibitor project, biochemical, quenched peptide fluorescence, cherry-pick (AID 488789)
[18] = molecular target: Eukaryotic translation initiation factor 4E (Mus musculus, UniProt P63073); assay: eIF4E–eIF4G protein interaction inhibitors, dose response, biochemical, TR-FRET (AID 855); assay type: functional;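 also: potency for disrupting eIF4E binding to eIF4GI seen as loss of FRET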
Hexokinase = Hexokinase (Trypanosoma brucei, UniProt Q38C41); assay: Confirmation assay for inhibitors of Trypanosoma brucei hexokinase 1-Analogue-first series. [Related pubchem assays (depositor defined):AID1430, AID1632, AID2516, AID2560, AID2579, AID2600, AID449725, AID492951]; assay type: functional
[19] = M. tuberculosis growth inhibition, HTS (AID 449762); assay type: functional
[20] = molecular target: DNA dC->dU-editing enzyme APOBEC-3A (Homo sapiens, UniProt P31941); assay: APOBEC3A DNA deaminase inhibitors, dose response, biochemical (AID 504722); assay type: functional
[21] = molecular target: DNA dC->dU-editing enzyme APOBEC-3G (Homo sapiens, UniProt Q9HC16); assay: Dose Response confirmation of small molecule APOBEC3G DNA Deaminase Inhibitors via a fluorescence-based single-stranded DNA deaminase assay. [Related pubchem assays (depositor defined):AID493012, AID493028]; assay type: functional
[22] = molecular target: T4, Rac GTPase-activating protein 1 (Homo sapiens, UniProt Q9H0H5); assay: MgcRacGAP GTPase-activating activity inhibitors, confirmation, biochemical, ADP Hunter fluorescence, primary and confirmatory (AID 624330); assay type: functional
T4 sequence (Q9H0H5 whole entry): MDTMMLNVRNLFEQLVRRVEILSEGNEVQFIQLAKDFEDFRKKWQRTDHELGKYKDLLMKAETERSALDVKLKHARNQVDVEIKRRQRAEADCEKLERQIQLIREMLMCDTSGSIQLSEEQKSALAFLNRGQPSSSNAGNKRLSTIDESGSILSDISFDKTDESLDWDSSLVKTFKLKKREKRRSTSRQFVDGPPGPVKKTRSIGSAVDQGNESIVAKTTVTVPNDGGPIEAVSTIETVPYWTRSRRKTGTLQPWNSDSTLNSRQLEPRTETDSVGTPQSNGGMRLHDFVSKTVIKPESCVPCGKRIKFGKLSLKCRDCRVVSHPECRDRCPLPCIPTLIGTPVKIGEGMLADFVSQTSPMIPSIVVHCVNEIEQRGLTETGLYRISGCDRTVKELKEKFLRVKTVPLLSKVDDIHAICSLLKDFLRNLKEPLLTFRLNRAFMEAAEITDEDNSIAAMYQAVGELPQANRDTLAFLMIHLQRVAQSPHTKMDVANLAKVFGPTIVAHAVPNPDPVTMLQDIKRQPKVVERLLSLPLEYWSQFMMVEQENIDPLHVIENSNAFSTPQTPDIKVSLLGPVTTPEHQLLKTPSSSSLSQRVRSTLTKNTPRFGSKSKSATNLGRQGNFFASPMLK

Sequence of Nucleotide-binding oligomerization domain-containing protein 2 (Q9HC29 whole entry, the tested form may be a part): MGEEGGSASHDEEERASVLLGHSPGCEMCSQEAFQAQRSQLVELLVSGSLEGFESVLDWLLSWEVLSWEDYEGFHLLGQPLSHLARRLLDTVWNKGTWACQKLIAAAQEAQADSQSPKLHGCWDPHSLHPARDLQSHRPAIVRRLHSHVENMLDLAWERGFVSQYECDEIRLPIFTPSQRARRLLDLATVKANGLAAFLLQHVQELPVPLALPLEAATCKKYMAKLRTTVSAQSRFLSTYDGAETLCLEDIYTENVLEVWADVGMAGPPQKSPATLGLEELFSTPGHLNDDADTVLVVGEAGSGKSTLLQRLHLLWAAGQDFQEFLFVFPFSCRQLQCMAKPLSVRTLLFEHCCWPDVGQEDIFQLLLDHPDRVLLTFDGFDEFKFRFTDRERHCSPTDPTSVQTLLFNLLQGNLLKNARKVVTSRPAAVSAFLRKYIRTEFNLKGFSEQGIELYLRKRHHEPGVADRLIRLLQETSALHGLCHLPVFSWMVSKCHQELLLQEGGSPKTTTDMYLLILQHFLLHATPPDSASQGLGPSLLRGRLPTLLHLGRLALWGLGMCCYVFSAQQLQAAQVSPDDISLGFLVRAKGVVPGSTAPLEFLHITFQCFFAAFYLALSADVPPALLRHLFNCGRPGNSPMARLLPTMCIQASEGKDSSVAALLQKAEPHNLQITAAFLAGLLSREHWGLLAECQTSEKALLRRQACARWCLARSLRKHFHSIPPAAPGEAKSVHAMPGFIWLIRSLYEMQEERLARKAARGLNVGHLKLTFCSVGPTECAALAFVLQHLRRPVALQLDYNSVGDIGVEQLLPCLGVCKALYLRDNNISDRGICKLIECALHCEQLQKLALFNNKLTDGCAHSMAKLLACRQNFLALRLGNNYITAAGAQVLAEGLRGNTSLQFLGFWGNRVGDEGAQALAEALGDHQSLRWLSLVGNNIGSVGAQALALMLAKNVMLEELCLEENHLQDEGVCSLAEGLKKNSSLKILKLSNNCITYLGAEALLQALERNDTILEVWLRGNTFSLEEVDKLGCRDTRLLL
Sequence of DNA dC->dU-editing enzyme APOBEC-3A (P31941 whole entry): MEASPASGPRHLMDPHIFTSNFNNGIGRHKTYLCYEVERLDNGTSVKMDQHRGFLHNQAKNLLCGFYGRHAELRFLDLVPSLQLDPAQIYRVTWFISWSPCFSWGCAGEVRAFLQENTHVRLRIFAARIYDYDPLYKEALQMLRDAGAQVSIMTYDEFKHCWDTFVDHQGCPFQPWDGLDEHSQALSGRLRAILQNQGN
Sequence of Eukaryotic translation initiation factor 4E (P63073 whole entry): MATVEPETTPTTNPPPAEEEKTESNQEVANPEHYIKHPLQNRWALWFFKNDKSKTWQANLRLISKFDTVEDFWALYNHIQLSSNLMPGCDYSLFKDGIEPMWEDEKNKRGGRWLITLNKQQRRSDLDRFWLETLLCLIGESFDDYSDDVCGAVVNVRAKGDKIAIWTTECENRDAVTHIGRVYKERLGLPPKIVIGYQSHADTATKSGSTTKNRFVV
Sequence of Beta-galactosidase (Q8VNN2 whole entry): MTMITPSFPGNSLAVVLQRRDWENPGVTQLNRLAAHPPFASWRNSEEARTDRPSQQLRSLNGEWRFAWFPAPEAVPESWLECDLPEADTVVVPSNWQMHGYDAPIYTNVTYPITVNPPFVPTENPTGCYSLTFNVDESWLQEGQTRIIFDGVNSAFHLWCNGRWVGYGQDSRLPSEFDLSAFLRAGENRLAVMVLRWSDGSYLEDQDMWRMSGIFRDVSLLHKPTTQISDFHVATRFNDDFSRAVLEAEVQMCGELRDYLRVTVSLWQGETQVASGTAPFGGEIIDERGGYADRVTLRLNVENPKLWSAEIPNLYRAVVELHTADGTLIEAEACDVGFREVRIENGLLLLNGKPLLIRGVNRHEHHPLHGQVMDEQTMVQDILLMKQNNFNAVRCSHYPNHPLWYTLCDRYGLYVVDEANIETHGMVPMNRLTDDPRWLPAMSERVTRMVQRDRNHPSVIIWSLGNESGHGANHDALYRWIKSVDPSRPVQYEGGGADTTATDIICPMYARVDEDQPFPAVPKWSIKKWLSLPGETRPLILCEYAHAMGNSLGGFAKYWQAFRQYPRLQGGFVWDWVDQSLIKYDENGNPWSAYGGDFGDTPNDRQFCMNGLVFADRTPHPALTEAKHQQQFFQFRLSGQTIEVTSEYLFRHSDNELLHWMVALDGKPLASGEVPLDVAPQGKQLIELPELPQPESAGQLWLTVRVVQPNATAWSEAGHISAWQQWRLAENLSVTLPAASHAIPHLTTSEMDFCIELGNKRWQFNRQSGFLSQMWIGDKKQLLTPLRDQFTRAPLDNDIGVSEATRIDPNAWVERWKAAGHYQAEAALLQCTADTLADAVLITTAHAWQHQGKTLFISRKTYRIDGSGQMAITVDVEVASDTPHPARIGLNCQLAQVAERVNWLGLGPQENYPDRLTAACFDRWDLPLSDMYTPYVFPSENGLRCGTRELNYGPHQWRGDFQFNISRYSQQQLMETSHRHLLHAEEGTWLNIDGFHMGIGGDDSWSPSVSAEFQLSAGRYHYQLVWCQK
Sequence of DNA dC->dU-editing enzyme APOBEC-3G (Q9HC16 whole entry): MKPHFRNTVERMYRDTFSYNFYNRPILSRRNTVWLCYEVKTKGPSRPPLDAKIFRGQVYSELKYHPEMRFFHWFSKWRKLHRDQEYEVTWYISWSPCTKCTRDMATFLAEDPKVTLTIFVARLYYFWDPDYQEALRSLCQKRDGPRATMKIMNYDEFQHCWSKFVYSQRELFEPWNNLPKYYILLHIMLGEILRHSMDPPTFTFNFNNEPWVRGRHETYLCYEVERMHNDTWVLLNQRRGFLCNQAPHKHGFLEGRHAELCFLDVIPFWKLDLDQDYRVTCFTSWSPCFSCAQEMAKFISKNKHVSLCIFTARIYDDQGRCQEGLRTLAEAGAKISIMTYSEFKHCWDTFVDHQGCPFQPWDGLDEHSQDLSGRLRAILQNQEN
Sequence of Trypsin (P00761 whole entry): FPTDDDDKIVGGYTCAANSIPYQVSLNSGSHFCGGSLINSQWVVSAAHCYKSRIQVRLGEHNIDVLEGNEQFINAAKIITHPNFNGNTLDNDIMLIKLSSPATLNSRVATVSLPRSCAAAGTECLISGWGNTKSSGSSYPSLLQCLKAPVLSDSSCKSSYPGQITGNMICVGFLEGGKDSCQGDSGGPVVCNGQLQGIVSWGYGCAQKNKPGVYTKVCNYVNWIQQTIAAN
Sequence of Hexokinase (Q38C41 whole entry): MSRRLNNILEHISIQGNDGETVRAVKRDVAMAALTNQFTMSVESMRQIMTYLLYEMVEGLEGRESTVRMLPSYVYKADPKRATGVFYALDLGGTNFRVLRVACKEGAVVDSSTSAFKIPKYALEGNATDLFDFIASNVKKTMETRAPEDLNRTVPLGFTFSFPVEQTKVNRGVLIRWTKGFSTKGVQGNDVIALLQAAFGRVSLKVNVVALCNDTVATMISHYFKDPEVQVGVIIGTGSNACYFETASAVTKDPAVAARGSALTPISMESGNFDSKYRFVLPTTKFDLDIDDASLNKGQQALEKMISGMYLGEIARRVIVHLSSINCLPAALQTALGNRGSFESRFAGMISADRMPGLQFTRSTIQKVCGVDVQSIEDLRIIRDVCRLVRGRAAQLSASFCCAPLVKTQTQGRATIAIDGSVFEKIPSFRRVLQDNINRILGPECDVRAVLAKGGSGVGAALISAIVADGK
Sequence of Polyadenylate-binding protein 1 (P11940 whole entry): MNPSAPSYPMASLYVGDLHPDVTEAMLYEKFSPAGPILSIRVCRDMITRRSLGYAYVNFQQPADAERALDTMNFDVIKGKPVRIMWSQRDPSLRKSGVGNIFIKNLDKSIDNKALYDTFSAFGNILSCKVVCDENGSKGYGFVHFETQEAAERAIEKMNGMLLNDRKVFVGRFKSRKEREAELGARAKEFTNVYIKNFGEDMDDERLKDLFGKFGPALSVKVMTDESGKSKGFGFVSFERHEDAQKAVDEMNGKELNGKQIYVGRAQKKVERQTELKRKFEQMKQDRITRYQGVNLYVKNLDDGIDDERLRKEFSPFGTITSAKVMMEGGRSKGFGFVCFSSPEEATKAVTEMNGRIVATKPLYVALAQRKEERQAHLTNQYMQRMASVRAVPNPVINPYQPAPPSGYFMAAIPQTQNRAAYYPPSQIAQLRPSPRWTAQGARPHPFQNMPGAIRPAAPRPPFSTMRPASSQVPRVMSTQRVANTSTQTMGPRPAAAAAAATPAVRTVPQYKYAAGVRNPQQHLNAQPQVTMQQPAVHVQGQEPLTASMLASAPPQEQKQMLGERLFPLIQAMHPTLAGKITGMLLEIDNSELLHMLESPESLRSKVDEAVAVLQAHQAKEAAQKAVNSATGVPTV

Cc1cc(OCC(=O)Nc2ccncc2)cc(C)c1Cl
EC50 (HEK293 [1]): 2.46 µM (active)
IC50 (HEK293 [2]): 4.41 µM (active)
IC50 (HEK293 [3]): 12.3 µM (active)
IC50 (HEK293 [4]): > 20 µM (inactive)
EC50 [5]: 8.48 µM (active)
IC50 (HEK293 [6]): 6.09 µM (active)

O=S(=O)([O-])CCC[n+]1ccc(Oc2ccccc2)cc1
IC50 [7]: 12.9 µM (active)
IC50 [8]: 4.32 µM (active)
IC50 [9]: 48.3 µM (active)

CC1Cc2ccccc2N1C(=O)CSc1nc2c(c(=O)n(C)c(=O)n2C)n1Cc1ccccc1 (stereo not given)
EC50 [10]: > 60 µM (not active)
EC50 [11]: 2.11 µM (active)
EC50 [12]: 0.15 µM (active)
EC50 [13]: 4.07 µM (active)

Cc1ccc2c(c1C)NC(C)CC2C (stereo not given)
EC50 [14]: > 55.7 µM (not active)
EC50 [15]: > 55.7 µM (not active)

CC(C)Cc1nnc(NC(=O)c2cc([N+](=O)[O-])ccc2N2CCOCC2)s1
IC50 (Beta-galactosidase): > 66.6 µM (inactive)

CCN(CC(=O)NC(C)(C)C)C(=O)COc1c(Cl)cc(Cl)c2ccc(C)nc12
EC50 (Streptococcus): 6.5 µM (active)
EC50 [16]: 1.45 µM (active)
IC50 (Beta-galactosidase): > 66.6 µM (inactive)
EC50 [17]: > 50 µM (active)

CCCc1nc2ccccc2c(=O)n1N
EC50 [14]: > 55.7 µM (not active)
EC50 [15]: > 55.7 µM (not active)

COc1nc(-c2ccccc2)ccc1-c1noc(-c2ccccc2F)n1
AC50 (Trypsin): > 100 µM (inactive)

CN(C)CCCOc1cccc(Cl)c1
EC50 [11]: 0.06 µM (active)
EC50 [12]: 0.03 µM (active)

O=C(NC1CCCCCCC1)c1ccc2c(c1)OCO2
IC50 [18]: > 64 µM (inactive)

CCOc1ccc(-n2c(C)c(C(C)=O)c3cc(O)ccc32)cc1
EC50 (HEK293 [1]): > 20 µM (inactive)
IC50 (HEK293 [2]): 0.451 µM (active)
IC50 (HEK293 [3]): > 20 µM (inactive)
IC50 (HEK293 [4]): > 20 µM (inactive)
EC50 [5]: > 20 µM (inactive)
IC50 (HEK293 [6]): 0.875 µM (active)

CCOC(=O)Cn1sc2ccccc2c1=O
IC50 (Hexokinase): 12.5 µM (active)

O=C1c2ccccc2C(=O)N1Cc1nc2ccccc2c(=O)n1-c1ccccn1
IC50 [18]: > 64 µM (inactive)

Cc1nn(-c2ccccc2)c(S)c1/C=N/CCC/N=C/c1c(C)nn(-c2ccccc2)c1S
IC50 [19]: > 100 µM (active)
IC50 [20]: > 100 µM (inactive)
IC50 [21]: 5.47 µM (active)

COc1cccc(/C=N/n2c(S)nnc2-c2[nH]nc3c2CCC3)c1O
IC50 [20]: > 100 µM (inactive)
IC50 [22]: 53.9 µM (active)
IC50 [21]: 2.48 µM (active)
